Measured values as given in patent US12077503B2, “Substituted cyclic amides and their use as herbicides” (FMC CORPORATION, priority 2015, dated 2024).

Experiments:
Type in all cases: in vivo
[1] = tested on: Kochia (Kochia scoparia); assay: Test A preemergence
Procedure, shortened: (§1)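 Visual injury, scored on a 0–100 scale relative to untreated controls, was recorded about 10 d after application. Treatments were a preemergence soil spray over planted seeds or a postemergence spray on plants at the one- to two-leaf stage, 2 to 10 cm tall, all in loam soil–sand blend in the greenhouse.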

[2] = tested on: barnyardgrass (Echinochloa crus-galli); assay: Test A preemergence
Procedure, shortened: as §1

[3] = tested on: giant foxtail (Setaria faberii); assay: Test A preemergence
Procedure, shortened: as §1

[4] = tested on: pigweed (Amaranthus retroflexus); assay: Test A preemergence
[5] = tested on: ragweed (common ragweed, Ambrosia elatior); assay: Test A preemergence
Procedure, shortened: as §1

[6] = tested on: ryegrass, Italian (Italian ryegrass, Lolium multiflorum); assay: Test A preemergence
Procedure, shortened: as §1

[7] = tested on: Galium (catchweed bedstraw, Galium aparine); assay: Test A postemergence
Procedure, shortened: as §1

[8] = tested on: Kochia (Kochia scoparia); assay: Test A postemergence
Procedure, shortened: as §1

[9] = tested on: barnyardgrass (Echinochloa crus-galli); assay: Test A postemergence
Procedure, shortened: as §1

[10] = tested on: blackgrass (Alopecurus myosuroides); assay: Test A postemergence
Procedure, shortened: as §1

[11] = tested on: corn (Zea mays); assay: Test A postemergence
Procedure, shortened: as §1

[12] = tested on: giant foxtail (Setaria faberii); assay: Test A postemergence
Procedure, shortened: as §1

[13] = tested on: pigweed (Amaranthus retroflexus); assay: Test A postemergence
Procedure, shortened: as §1

[14] = tested on: ragweed (common ragweed, Ambrosia elatior); assay: Test A postemergence
Procedure, shortened: as §1

[15] = tested on: ryegrass, Italian (Italian ryegrass, Lolium multiflorum); assay: Test A postemergence
Procedure, shortened: as §1

[16] = tested on: wheat (Triticum aestivum); assay: Test A postemergence
Procedure, shortened: as §1

[17] = tested on: barnyardgrass (Echinochloa crus-galli); assay: Test B flooded paddy test; conditions: Flood, 250 g ai/ha; 0 to 100 scale where 0 is no effect and 100 is complete control; 13 to 15 d
Procedure, shortened: (§2)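 Response scored visually against untreated controls, 0 = no effect and 100 = complete control, 13–15 d after treatment in the greenhouse. Compounds added to paddy water held 3 cm above soil surface. Treatment given at 2-leaf stage.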

[18] = tested on: ducksalad (Heteranthera limosa); assay: Test B flooded paddy test; conditions: Flood, 250 g ai/ha; 0 to 100 scale where 0 is no effect and 100 is complete control; 13 to 15 d
Procedure, shortened: as §2

[19] = tested on: rice (Oryra sativa); assay: Test B flooded paddy test; conditions: Flood, 250 g ai/ha; 0 to 100 scale where 0 is no effect and 100 is complete control; 13 to 15 d
Procedure, shortened: as §2

[20] = tested on: sedge, umbrella (small-flower umbrella sedge, Cyperus difformis); assay: Test B flooded paddy test; conditions: Flood, 250 g ai/ha; 0 to 100 scale where 0 is no effect and 100 is complete control; 13 to 15 d
Procedure, shortened: as §2

[21] = 125 g ai/ha, Preemergence, visual injury after approximately 10 d, 0 to 100 scale where 0 is no effect and 100 is complete control
[22] = 500 g ai/ha, preemergence, 0 to 100 scale, 0 = no effect, 100 = complete control
[23] = 125 g ai/ha, postemergence, visual rating after approx. 10 d, 0 to 100 scale (0 no effect, 100 complete control)
[24] = Postemergence, 500 g ai/ha, 0 to 100 scale where 0 is no effect and 100 is complete control
[25] = 500 g ai/ha, postemergence, visual injury, 0 to 100 scale (0 no effect, 100 complete control), approx. 10 d

Row | Compound | Plant response rating, Kochia [1, 21] | Plant response rating, Kochia [1, 22] | Plant response rating, Barnyardgrass [2, 21] | Plant response rating, Barnyardgrass [2, 22] | Plant response rating, Foxtail, Giant [3, 21] | Plant response rating, Foxtail, Giant [3, 22] | Plant response rating, Pigweed [4, 21] | Plant response rating, Pigweed [4, 22] | Plant response rating, Ragweed [5, 21] | Plant response rating, Ragweed [5, 22] | Plant response rating, Ryegrass, Italian [6, 21] | Plant response rating, Ryegrass, Italian [6, 22] | Plant response rating, Galium [7, 23] | Plant response rating, Kochia [8, 23] | Plant response rating, Barnyardgrass [9, 23] | Plant response rating, Blackgrass [10, 23] | Plant response rating, Corn [11, 23] | Plant response rating, Foxtail, Giant [12, 23] | Plant response rating, Pigweed [13, 23] | Plant response rating, Ragweed [14, 23] | other results
1 | CN1CC(c2cccc(OC(F)F)c2)C(C)(C(=O)Nc2cccc(F)c2F)C1=O (stereo not drawn) [Compound 619] | 20 | 20 | 0 | 0 | 0 | 0 | 0 | 0 | 0 | 0 | 0 | 0 | 0 | 0 | 0 | 0 | 0 | 0 | 0 | 0 | Plant response rating, Galium [7, 24]: 0; Plant response rating, Kochia [8, 24]: 0; Plant response rating, Barnyardgrass [9, 24]: 0; Plant response rating, Blackgrass [10, 24]: 0; Plant response rating, Corn [11, 24]: 0; Plant response rating, Foxtail, Giant [12, 24]: 0; Plant response rating, Pigweed [13, 24]: 0; Plant response rating, Ragweed [14, 24]: 0; Plant response rating, Ryegrass, Italian [15, 23]: 0; Plant response rating, Ryegrass, Italian [15, 24]: 0; Plant response rating, Wheat [16, 23]: 0; Plant response rating, Wheat [16, 24]: 0; Plant response rating, Barnyardgrass [17]: 0; Plant response rating, Ducksalad [18]: 0; Plant response rating, Rice [19]: 0; Plant response rating, Sedge, Umbrella [20]: 0
2 | N#Cc1cccc(C2CNC(=O)C2C(=O)Nc2cccc(F)c2F)c1 (stereo not drawn) [Compound 621] | 0 | 40 | 90 | 90 | 90 | 90 | 0 | 20 | 0 | 90 | 0 | 40 | 30 | 0 | 90 | 0 | 0 | 70 | 0 | 0 | Plant response rating, Galium [7, 24]: 40; Plant response rating, Kochia [8, 24]: 20; Plant response rating, Barnyardgrass [9, 24]: 90; Plant response rating, Blackgrass [10, 24]: 20; Plant response rating, Corn [11, 24]: 20; Plant response rating, Foxtail, Giant [12, 24]: 90; Plant response rating, Pigweed [13, 24]: 0; Plant response rating, Ragweed [14, 24]: 0; Plant response rating, Ryegrass, Italian [15, 23]: 0; Plant response rating, Ryegrass, Italian [15, 24]: 20; Plant response rating, Wheat [16, 23]: 0; Plant response rating, Wheat [16, 24]: 50; Plant response rating, Barnyardgrass [17]: 50; Plant response rating, Ducksalad [18]: 100; Plant response rating, Rice [19]: 20; Plant response rating, Sedge, Umbrella [20]: 0
3 | Cc1cc(C2CNC(=O)C2C(=O)Nc2ccccc2F)cs1 (stereo not drawn) [Compound 630] | 0 | 50 | 90 | 90 | 80 | 90 | 0 | 0 | 0 | 30 | 0 | 20 | 0 | 0 | 80 | 0 | 0 | 30 | 0 | 0 | Plant response rating, Galium [7, 25]: 40; Plant response rating, Kochia [8, 25]: 0; Plant response rating, Barnyardgrass [9, 24]: 90; Plant response rating, Blackgrass [10, 24]: 20; Plant response rating, Corn [11, 24]: 20; Plant response rating, Foxtail, Giant [12, 25]: 30; Plant response rating, Pigweed [13, 25]: 0; Plant response rating, Ragweed [14, 25]: 0; Plant response rating, Ryegrass, Italian [15, 23]: 0; Plant response rating, Ryegrass, Italian [15, 25]: 0; Plant response rating, Wheat [16, 23]: 0; Plant response rating, Wheat [16, 25]: 20; Plant response rating, Barnyardgrass [17]: 20; Plant response rating, Ducksalad [18]: 95; Plant response rating, Rice [19]: 0; Plant response rating, Sedge, Umbrella [20]: 0
4 | O=C1NCC(c2csc(Br)c2)C1C(=O)Nc1ccccc1F (stereo not drawn) [Compound 648] | 0 | 50 | 70 | 90 | 60 | 80 | 0 | 40 | 0 | 20 | 30 | 40 | 20 | 0 | 70 | 30 | 0 | 10 | 30 | 0 | Plant response rating, Galium [7, 25]: 60; Plant response rating, Kochia [8, 25]: 0; Plant response rating, Barnyardgrass [9, 25]: 80; Plant response rating, Blackgrass [10, 25]: 50; Plant response rating, Corn [11, 25]: 0; Plant response rating, Foxtail, Giant [12, 25]: 50; Plant response rating, Pigweed [13, 25]: 50; Plant response rating, Ragweed [14, 25]: 30; Plant response rating, Ryegrass, Italian [15, 23]: 30; Plant response rating, Ryegrass, Italian [15, 25]: 50; Plant response rating, Wheat [16, 23]: 0; Plant response rating, Wheat [16, 25]: 0; Plant response rating, Barnyardgrass [17]: 20; Plant response rating, Ducksalad [18]: 100; Plant response rating, Rice [19]: 20; Plant response rating, Sedge, Umbrella [20]: 0
5 | CN1CC(c2cc(F)cc(F)c2)C(C(=O)Nc2cccc3c2CCC3)C1=O (stereo not drawn) [Compound 659] | 0 | 0 | 90 | 90 | 90 | 90 | 0 | 0 | 0 | 0 | 0 | 30 | 0 | 20 | 70 | 40 | 0 | 90 | 0 | 0 | Plant response rating, Galium [7, 25]: 20; Plant response rating, Kochia [8, 25]: 20; Plant response rating, Barnyardgrass [9, 25]: 90; Plant response rating, Blackgrass [10, 25]: 50; Plant response rating, Corn [11, 25]: 50; Plant response rating, Foxtail, Giant [12, 25]: 90; Plant response rating, Pigweed [13, 25]: 0; Plant response rating, Ragweed [14, 25]: 0; Plant response rating, Ryegrass, Italian [15, 23]: 0; Plant response rating, Ryegrass, Italian [15, 25]: 60; Plant response rating, Wheat [16, 23]: 0; Plant response rating, Wheat [16, 25]: 50; Plant response rating, Barnyardgrass [17]: 60; Plant response rating, Ducksalad [18]: 80; Plant response rating, Rice [19]: 15; Plant response rating, Sedge, Umbrella [20]: 0
